Assay [1] has as its system mCherry fluorescent reporter. As to the kind of experiment: Inducible anti-sense repressor switch: mCherry reporter repression and recovery in 293T cells stably expressing ZF-VP64-ERT2 synTF and the reporter construct. In kind it is cell-based, human. How it is done: (§1) To evaluate the kinetics of this repressor switch, 293T cells where generated to stably express both the inducible anti-sense repressor and fluorescent reporter. In order to determine whether the repressor switch is able to transiently silence GOIs, the inventors treated reporter cells with. 1 uM 4-OHT and measured mCherry reporter fluorescence at 1 day, 2 days, and 3 days. In order to determine whether the repressor switch transiently represses GOIs, the inventors removed 4-OHT and measured fluorescence expression after 2 days, 4 days, 6 days, and 8 days (FIG. 5A-5B).
The expression of mCherry was measured at days 0, d1, d2, d3, d4, d6, d7, d9 and d11.
as §1, with “To assess transcriptional repression of the GOI, inducible antisense repressor construct comprising (i) a first transcriptional unit comprising a constitutively active promoter operatively linked to a mCherry fluorescent reporter GOI was used, and a (ii) a second transcriptional unit comprising an inverted DNA binding motif (DBM) comprising a zinc finger binding array operatively linked to a minimal promoter (FIG. 4A). To” for “To”, “with 0.1” for “with. 1”
To assess the inducible transcriptional repressor system, the inventors initially used two vectors. One vector comprises a synthetic inducible repressor construct as defined herein, which compromises a gene of interest (GOI) operatively linked to a constitutive promoter, and downstream, a second transcription unit comprising, in brief, a second promoter, and a binding site for the synTF (e.g., DBM or the DNA binding domain). The second vector encoding the inducible synTF (e.g., small molecule induced synTF) comprising a transcriptional activation domain, DNA-binding domain (DBD) and a nuclear localization domain (or cytosolic domain). First, to construct the nucleic acid encoding the small-molecule inducer synTF, one of our artificial zinc finger proteins was attached (see U.S. Pat. No. 10,138,493 B2 and Patent Application No. US 2020/0377564 A1, incorporated herein by reference) to both a VP64 transcriptional domain and ERT2 domain (FIG. 2A). To assess the inducer-dependent, synTF mediated transcriptional repression of the GOI, an engineered construct comprising a constitutively expressed mCherry fluorescent reporter, operatively connected to a constitutive promoter was created, which had, downstream a minimal promoter and an inverted zinc finger binding array (ZF-BD) (also referred to as a DNA binding motif (DBM) (FIG. 4A).
To evaluate the kinetics of this inducible antisense repressor switch, 293T cells were transduced with the vector encoding the synTF and the inducible transcriptional repressor construct to generate a reporter cell line that stably expresses both the inducible synTF and fluorescent reporter. To determine whether the repressor switch was able to transiently silence the GOI mRNA, the cells were treated with three concentrations of 4-OHT and mCherry reporter was measured fluorescence at 1 day, 2 days, and 3 days (FIG. 5A-5B). Next, to determine whether the inducible synTF repressor switch could transiently represses the expression of the GOI, 4-OHT was removed and measured fluorescence expression after 2 days, 4 days, 6 days, and 8 days (FIG. 5B).

In assay [2] the test system is mCherry. As to the kind of experiment: Downstream inducible repression with synTF-RD (zinc finger, KRAB, ERT2) and its repressor construct, % mCherry (FIG. 6B). To be noted: 4-OHT at 0.1, 0.2, 0.5 and 1 μM for d0-d3, 8 days after removal. In kind it is cell-based. The text has this:
FIG. 6A-6B show an alternative embodiment of a synTF and construct system for downstream inducible-repression.

The subject of a further assay is mCherry GOI. The assay is described as follows: Inducible-repressor circuit with spacer and second promoter, % mCherry and FACS (FIG. 8, FIG. 9). In kind it is cell-based. The text has this:
FIG. 7 is a schematic of an exemplary inducible-repressor circuit (top panel), and a second exemplary inducible-repressor circuit (bottom panel), where the second inducible-repressor circuit is modified to comprise, in the second transcription unit, a spacer and a second promoter, and the DBD, each if which are in the antisense direction to the first transcription unit comprising the first promoter and GOI.

The test system of assay [3] is mCherry. The assay is described as follows: Inducible-repressor circuit with RZ and synTF-MNAS, % mCherry (FIG. 11). To be noted: 4-OHT d0-d3 at 0.1, 0.2, 0.5 and 1 μM, duplicates. The class given is cell-based. An excerpt: FIG. 10 is a schematic of an exemplary synTF comprising VP64, and an exemplary inducible anti-sense repressor construct comprising, in the second transcription unit, a ribosome entry site (RZ), and a nucleic acid sequence that is the antisense to a portion of the nucleic acid encoding the GOI, which are both 5′ to the second promoter and the DBD. In some embodiments, the antisense to the portion of the GOI, herein referred to as “synTF-mediated nucleic acid sequence” or “synTF-MNAS” can be replaced by any RNAi molecule known to persons of ordinary skill in the art.

The text below walks through data of patent publication US20240110185A1, “INDUCIBLE ANTI-SENSE REPRESSOR SWITCHES AND USES THEREOF” (Trustees of Boston University, priority 2022, published 2024).

With `CC/C(=C(\c1ccc(O)cc1)c1ccc(OCCN(C)C)cc1)c1ccccc1` [4-OHT, 4-hydroxytamoxifen], in assay [1] (0.1 uM 4-OHT, 293T reporter cells, after 3 days), the “reporter fluorescence expression after 3 days of 4-OHT” value is given as “strongly repressed”. Also, the “mCherry expression in the presence of 4-OHT, of normal levels” value in assay [1] (4-OHT at 0.1 μM, 0.2 μM and 0.5 μM for d0-d3, 293 cells with synTF and construct of FIG. 2A-2B) was “about 20%”. The “mCherry levels 8 days after the removal of 4-OHT” value in assay [1] (4-OHT at 0.1 μM, 8 days after removal) is “back to normal levels”. The “reporter fluorescence expression after 4-OHT removal” value in assay [1] (8 days post 4-OHT removal) was “restored”. The “mCherry expression restored, of baseline levels” value in assay [1] (8 days post 4-OHT removal, 0.1 M 4-OHT treatment (so in the source)) was determined as 100%. The “repression of mCherry expression” value in assay [1] (all three 4-OHT concentrations, after 3 days, 293T reporter cells) was “approx. 80%”. Besides, the “mCherry expression after the removal of 4-OHT” value in assay [1] (d4-d11, after 3 days of 4-OHT) is on record as “significantly increased”. The “repression of mCherry compared with the synTF and construct of FIG. 5B” value in the assay with mCherry [2] was “milder repression”. Further, the “repression of mCherry compared with the construct in the top panel of FIG. 7” value in the assay with mCherry GOI (4-OHT d0-d3 at 0.1 μM, 0.2 M (so in the source), 0.5 μM and 1 μM, duplicates, spacer and second promoter circuit) is listed as “greater repression”; in the assay on mCherry [3] it was “greater repression”. Also, the “mCherry expression, FACS flow plot” value in the assay on mCherry GOI (2 days after addition of 1 uM 4-OHT, decreased from 87.9% before) is recorded as 69.8%.
